Reference: ChEMBL document CHEMBL1201862, “PubChem BioAssay data set” (2004)
The source made the active and inactive calls.

Assays:
[1] = NIH-3T3 fibroblast cytotoxicity, dose response, cytotoxicity control, cell-based, fluorescence, Alamar Blue, secondary assay (AID 2327); assay type: functional;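 also: NIH-3T3 mouse fibroblasts cultured with fluconazole at 8 µg/mL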
Estrogen receptor beta = Estrogen receptor beta (Homo sapiens, UniProt Q92731); experiment: ERβ–SRC-3 coactivator interaction inhibitors, confirmation, orthogonal assay, biochemical, ELISA, streptavidin-HRP readout (AID 1060)
Sequence of Estrogen receptor beta (Q92731 whole entry): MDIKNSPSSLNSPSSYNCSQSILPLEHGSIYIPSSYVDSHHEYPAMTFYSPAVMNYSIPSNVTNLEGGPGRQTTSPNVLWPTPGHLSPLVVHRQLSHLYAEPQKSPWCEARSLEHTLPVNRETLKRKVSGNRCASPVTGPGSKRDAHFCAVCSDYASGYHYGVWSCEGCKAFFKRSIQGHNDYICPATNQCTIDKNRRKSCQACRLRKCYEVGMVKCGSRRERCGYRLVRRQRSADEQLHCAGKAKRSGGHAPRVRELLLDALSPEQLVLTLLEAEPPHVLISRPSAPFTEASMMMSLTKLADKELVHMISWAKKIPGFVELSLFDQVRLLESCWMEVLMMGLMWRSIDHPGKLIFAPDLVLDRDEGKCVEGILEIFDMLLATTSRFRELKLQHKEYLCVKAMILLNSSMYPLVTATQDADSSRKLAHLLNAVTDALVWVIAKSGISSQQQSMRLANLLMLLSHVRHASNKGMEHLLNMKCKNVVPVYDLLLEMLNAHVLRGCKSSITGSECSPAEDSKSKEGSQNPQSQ

[2] = C. albicans growth with fluconazole, confirmation, fluorescence, retest (AID 2467); assay type: functional, cell-based
Vero = experiment: host cell cytotoxicity of antiviral hits, dose response, cytotoxicity control for West Nile virus antiviral project, secondary assay (AID 1650); assay type: functional; details: Chlorocebus sabaeus
[3] = A549 cell cytotoxicity, dose response, cytotoxicity control, plate reader, cherry-pick, antagonist series (AID 743412); assay type: functional, cell-based
Streptococcus = experiment: Group A Streptococcus viability loss, dose response, counter-screen for streptokinase expression inhibitor project, luminescence, BacTiterGlo (AID 1915); assay type: functional, organism-based;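 also: potency for reduction of bacterial viability or growth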
[4] = LGR2 antagonists, dose response, cell-based, HEK293, CRE-luciferase reporter, cherry pick, set 2 (AID 743343); assay type: functional;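 also: transfected cells were stimulated with diluted bursicon conditioned medium after compound addition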
Streptokinase A = molecular target: T1, Streptokinase A (Streptococcus pyogenes serotype M1, UniProt P10520); experiment: S. pyogenes streptokinase expression inhibitors, potency, dose response, plasminogen activation absorbance, OD405 (AID 1914); assay type: functional, Streptococcus pyogenes M1 GAS;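 also: secreted streptokinase activity via plasminogen activation per viability signal from cell pellet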
T1 sequence (P10520 whole entry): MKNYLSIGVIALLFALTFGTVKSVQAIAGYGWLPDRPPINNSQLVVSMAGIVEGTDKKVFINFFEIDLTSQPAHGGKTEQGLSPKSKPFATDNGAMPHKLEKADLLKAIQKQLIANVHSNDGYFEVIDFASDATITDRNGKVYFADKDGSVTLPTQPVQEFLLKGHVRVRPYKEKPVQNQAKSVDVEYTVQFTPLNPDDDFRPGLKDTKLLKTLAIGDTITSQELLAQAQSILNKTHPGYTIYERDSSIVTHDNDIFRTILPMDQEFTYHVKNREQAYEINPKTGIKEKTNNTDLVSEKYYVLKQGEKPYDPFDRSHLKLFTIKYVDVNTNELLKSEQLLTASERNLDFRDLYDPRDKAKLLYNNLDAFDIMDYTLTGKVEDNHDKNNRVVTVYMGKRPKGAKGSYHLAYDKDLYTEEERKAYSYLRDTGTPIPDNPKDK

[5] = tested on: Streptococcus sp. 'group A'; experiment: growth inhibition of control SK(-) GAS strain, dose response, counter-screen for streptokinase expression inhibitor project, luminescence, kanamycin, BacTiterGlo, confirmation (AID 1900); assay type: functional, organism-based
[6] = MC4R antagonists, dose response, counter-screen for LGR2 antagonist project, cell-based, plate reader, cherry pick (AID 743444); assay type: functional;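 also: transfected HEK 293 cells stimulated with alpha-MSH peptide; potency of inhibitors of the alpha-MSH evoked signal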
[7] = HEK293 cell cytotoxicity, dose response, cytotoxicity control, plate reader, cherry-picked samples (AID 743446); assay type: functional, cell-based
[8] = HepG2 cell cytotoxicity, dose response, cytotoxicity control, plate reader, cherry-pick, antagonist series (AID 743416); assay type: functional, cell-based
[9] = Luminescence-based counterscreen assay for KLF5 inhibitors: dose response cell-based high throughput screening assay to identify cytotoxic compounds using the IEC-6 intestinal epithelial cell line. [Related pubchem assays: 1700 (Primary screen.), 1834 (Confirmation screen.), 1858 (Summary AID.), 1905 (Counterscreen.)]; assay type: functional
Ephrin type-A receptor 4 = Ephrin type-A receptor 4 (Mus musculus, UniProt Q03137); experiment: inhibitors of EphA4 binding to KYL peptide, primary screen, biochemical, colorimetric, mouse EphA4 (AID 689); assay type: functional
Sequence of Ephrin type-A receptor 4 (Q03137 whole entry, the tested form may be a part): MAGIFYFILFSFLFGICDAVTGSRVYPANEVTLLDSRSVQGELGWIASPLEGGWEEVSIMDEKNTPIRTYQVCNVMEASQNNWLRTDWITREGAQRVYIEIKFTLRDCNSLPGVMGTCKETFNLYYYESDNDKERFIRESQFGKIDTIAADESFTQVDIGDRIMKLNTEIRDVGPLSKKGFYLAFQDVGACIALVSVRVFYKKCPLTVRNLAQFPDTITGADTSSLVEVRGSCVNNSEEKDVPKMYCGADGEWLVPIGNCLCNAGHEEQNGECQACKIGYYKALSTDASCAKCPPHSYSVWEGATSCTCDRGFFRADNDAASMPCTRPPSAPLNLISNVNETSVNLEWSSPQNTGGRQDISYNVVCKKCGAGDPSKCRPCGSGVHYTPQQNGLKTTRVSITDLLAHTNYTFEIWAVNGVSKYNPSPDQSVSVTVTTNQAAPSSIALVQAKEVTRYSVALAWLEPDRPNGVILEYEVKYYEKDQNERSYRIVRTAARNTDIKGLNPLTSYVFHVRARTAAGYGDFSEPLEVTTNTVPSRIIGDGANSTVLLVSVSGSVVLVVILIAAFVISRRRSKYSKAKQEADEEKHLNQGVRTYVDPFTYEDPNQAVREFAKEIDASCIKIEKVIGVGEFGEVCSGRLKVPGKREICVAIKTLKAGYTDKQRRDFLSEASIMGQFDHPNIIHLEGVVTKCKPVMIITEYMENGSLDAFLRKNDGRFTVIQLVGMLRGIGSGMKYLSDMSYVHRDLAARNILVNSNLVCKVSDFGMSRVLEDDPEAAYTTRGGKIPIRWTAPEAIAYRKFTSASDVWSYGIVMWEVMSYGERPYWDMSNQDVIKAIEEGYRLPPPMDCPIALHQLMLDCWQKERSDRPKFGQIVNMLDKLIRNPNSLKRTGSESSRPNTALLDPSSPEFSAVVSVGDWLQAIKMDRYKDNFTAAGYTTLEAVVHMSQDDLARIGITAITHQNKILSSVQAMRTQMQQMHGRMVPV

[10] = molecular target: Disintegrin and metalloproteinase domain-containing protein 17 (Homo sapiens, UniProt P78536); experiment: exosite inhibitors of ADAM17, dose response, biochemical (AID 743260)
Sequence of Disintegrin and metalloproteinase domain-containing protein 17 (P78536 whole entry, the tested form may be a part): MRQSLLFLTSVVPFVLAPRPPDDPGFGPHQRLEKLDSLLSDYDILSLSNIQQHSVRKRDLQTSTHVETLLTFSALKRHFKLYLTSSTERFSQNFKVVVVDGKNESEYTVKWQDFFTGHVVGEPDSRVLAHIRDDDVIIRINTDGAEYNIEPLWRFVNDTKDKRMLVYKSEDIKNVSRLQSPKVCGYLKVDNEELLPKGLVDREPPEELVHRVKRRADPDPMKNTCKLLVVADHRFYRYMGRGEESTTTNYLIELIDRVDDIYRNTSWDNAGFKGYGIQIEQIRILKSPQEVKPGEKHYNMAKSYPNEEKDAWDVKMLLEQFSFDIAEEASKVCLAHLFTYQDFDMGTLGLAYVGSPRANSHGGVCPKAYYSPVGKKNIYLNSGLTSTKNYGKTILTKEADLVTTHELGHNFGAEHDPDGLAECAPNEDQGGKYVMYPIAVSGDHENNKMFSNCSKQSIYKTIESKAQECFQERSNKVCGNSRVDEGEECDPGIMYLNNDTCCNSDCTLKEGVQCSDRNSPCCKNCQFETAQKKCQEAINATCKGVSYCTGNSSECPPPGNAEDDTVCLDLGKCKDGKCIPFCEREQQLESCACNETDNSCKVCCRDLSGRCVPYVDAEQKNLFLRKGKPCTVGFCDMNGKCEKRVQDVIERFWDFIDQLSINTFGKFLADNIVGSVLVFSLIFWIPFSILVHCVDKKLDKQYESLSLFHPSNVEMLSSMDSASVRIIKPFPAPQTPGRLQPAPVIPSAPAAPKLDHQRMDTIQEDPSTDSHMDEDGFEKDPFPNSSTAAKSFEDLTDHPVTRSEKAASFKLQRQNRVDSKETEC

[11] = ADAM10 protease inhibitors, dose response, selectivity assay for ADAM17 exosite inhibitor project, biochemical, FRET peptide substrate, recombinant human ADAM10 (AID 743259);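 also: ADAM10 enzyme cleaving a FRET peptide substrate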

With `CN1CCN(C(c2cccnc2)c2ccc3cccnc3c2O)CC1` (stereo unspecified) the EC50 [1] was > 160 µM (inactive), the IC50 (Estrogen receptor beta) was 32.6 µM (not active) and the EC50 [2] was > 38 µM (not active).
With `COC(=O)C1=C(C(=O)OC)SC(=C2C(=S)C(C)(C)N(C(=O)CC(C)C)c3ccccc32)S1` the CC50 (Vero) was 49.5 µM (active).
In the case of `O=C(Nc1nc2cc3c(cc2s1)OCCO3)c1ccco1`, the AC50 [3] is reported as 12.9 µM (active), the EC50 (Streptococcus) is reported as 53.5 µM (active) and the AC50 [4] is reported as 1.12 µM (active). The EC50 (Streptokinase A) was > 150 µM (not active), the EC50 [5] was 19.5 µM (active) and the AC50 [6] was 1.07 µM (active). The AC50 [7] was 45.4 µM (active), the AC50 [8] was 28.5 µM (active) and the IC50 [9] was 7.91 µM (active).
With `CCOC(=O)c1cc(OC(=O)c2ccccc2OC)n(-c2ccccc2)n1` the IC50 (Ephrin type-A receptor 4) was 19.7 µM (active), the IC50 [10] was > 69.5 µM (inactive) and the IC50 [11] was > 69.5 µM (inactive).
